From patent US20070025997A1, “Use of biomolecular targets in the treatment and visualization of brain tumors” (priority 2002, published 2007)
“Also recorded” adds a separate entry of the source.

Legend:
G140-DDR1a cells [1] = assay: Invasion assay through Matrigel-coated Fluoroblok membranes; type: cell-based, human; conditions: 25 μM
Experimental: (§1) Migration and Invasion Assays: Migration assays were performed using 24-well fluoroblok chambers (BD Biosciences, […] pore size). Cells overexpressing DDR1a, DDR1 b, vector alone (Mock) and parental cells were trypsinized and 1×10^6 cells were suspended in DMEM plus 1% serum. 100, 000 cells were placed in the upper chambers (Becton Dickenson-Fluoroblok plates-8 μm) in triplicate. DMEM with 5% serum was added to the lower chambers. After 4 hours, cells adhering to the underside of the membrane were stained with 4 μg/ml Calcein AM (Molecular Probes, Inc.) and fluorescence emitted by cells that have migrated through the chamber to the underside of the filter was measured at λs of 530/590 nm using a CytoFlor plate reader (Series 4000, Perspective Biosystems). For Invasion Assays: Rat tail Collagen type I (BD Biosciences, 10 μg/ml), human Collagen type IV (BD Biosciences, […]), human Fibronectin (BD Biosciences, 5 μg/ml) were used to coat the underside of the chambers and Fluoroblok plates previously coated with Matrigel (BD Biosciences, 24 wells) were used. […] The cells were allowed to invade through the matrices at 37° C. for 16 hrs and stained with Calcein AM and fluorescence emitted by cells was measured at Xs of 530/590 nm using a CytoFlor plate reader (Series 4000, Perspective Biosystems). […]

G140-DDR1a cells [2] = assay: Invasion assay through Collagen type 1 coated membranes; type: cell-based, human; conditions: 25 μM
Experimental: as §1

MMP-2 = assay: Gelatin zymography of conditioned media (MMP-2 activation); type: cell-based, human
Experimental: Zymography: Serum-free media from G140 cell lines were stimulated with Collagen type I (10 μg/mL and collected after 24 hr. In some experiments, GM6001 (25 μM, 50 μM) was added to the media. The media was mixed with Tris-Gycine SDS Sample buffer (2×) and 20 μg of protein was subjected to 10% SDS-polyacrylamide gel electrophoresis (Invitrogen, Inc.) using 0.1% gelatin. After electrophoresis, gels were incubated in 2.5% Triton X-100 (Renaturing Buffer, Invitrogen, Inc.) for 30 minutes twice to remove SDS, and replaced with 50 mM Tris-Hcl, pH 7.5 containing 0.15 M NaCl, 10 mM CaCl2, and 0.02% NaN3 (Developing Buffer, Invitrogen, Inc.) overnight and then stained with Coomassie Blue R-250 for 30 minutes.

glioma cells = assay: Migration assay in Fluoroblok chambers; type: cell-based, human; conditions: glioma cells overexpressing DDR1a
Experimental: as §1

DDR1 [3] = assay: Immunoprecipitation for DDR1 phosphorylation; type: cell-based, human; conditions: G140 parental cells; 10 μg/ml soluble
Experimental: (§2) Immunoprecipitation for DDR1 phosphorylation: Rat tail collagen type 1 was purchased from Collaborative Biomedical Products (Bedford, Mass., USA). Cells were stimulated with 10 μg/ml soluble collagen type 1 for various periods of time. Cell lysates were prepared in RIPA buffer and immunoprecipitation was performed by incubating 1000 μg of cell extracts with DDR1 (C-20) antibody overnight at 4° C. Protein A beads (Santa Cruz Biotechnology: 50 μl) were added for 1 hr; the beads were washed three times with wash buffer and aliquots of the supernatant were subjected to SDS-PAGE. The blots were probed with monoclonal anti-phosphotyrosine antibody (4G10; Upstate Biotechnology Inc.) and visualized using the enhanced chemiluminescence (ECL) system (Amersham Pharmacia Biotech, Uppsala, Sweden). The blots were stripped and reprobed with a polyclonal antibody for DDR1 (C-20). Western Blot. The blots were probed with β-actin antibody to confirm equal loading.

MMP-1, MMP-2 and MMP-9 = assay: Gelatin zymography of media of DDR1 overexpressing glioma cells (Example 1); type: cell-based, human; conditions: 20 ug/ml; 48 hrs; serum-free medium
Experimental: DDR1 overexpressing glioma cells reveal increased prescence of MMP-9, MMP-2 and MMP-1. Cells overexpressing DDR1a and DDR1b, DDR1 ex (extracellular domain construct) and Emmprin ex (extracellular domain construct), Ht1080 cells and human Fibroblasts, cells expressing empty vector were plated onto plates. After 24 hrs of plating, media was replaced with Serum-free medium with or without 20 ug/ml Type 1 Collagen and were incubated for 48 hrs at 37° C. Media from cells was collected and concentrated. 10 ug of media from each sample was resolved on a polyacrylamide gel (10%) containing 0.1% gelatin. Following electrophoresis, gels were washed twice with 5% Triton X-100 (30 min each). After washing, the gels were incubated for 24 h at 37° C. in the presence of 50 mM Tris-HCl, 5 mM CaCl2, 5 μM ZnCl2, pH 7.5, stained with Coomassie Brilliant Blue R-250 for 30 min and then destained. MMP-1, MMP-2 and MMP-9 production was induced by native type I collagen.

DDR1 [4] = target: T1, DDR1 (Homo sapiens, UniProt Q08345); assay: DDR1 activation in Glioma cells, anti-phosphotyrosine western blot; type: cell-based; design: DDR1 is phosphorylated as a 125 kD (full length) protein; conditions: 60 minutes, 10 ug/ml (EGF 20 ng/ml)
Experimental: DDR1 activation in Glioma cells. DDR1 Glioma cells were stimulated with 10 ug/ml of Type1 collagen, 10 ug/ml Vitrogen, 10 ug/ml Fibronectin and 20 ng/ml EGF for 60 minutes. After stimulation, cells were lysed in RIPA buffer and resolved a 10% polyacrylamide gel (10%) gel. Lane 1, Nonstimulates, Lane 2, Type 1 Collagen (10 ug/ml, Lane 3 stimulated with Vitrogen (10 μg/ml), Lane 4 stimulated with human Fibronectin (10 μg/ml), Lane 5 stimulated with EGF 20 ng/ml) for 60 minutes. Cell lysates were analysed by anti-phosphotyrosine (4G10, Upstate Biotechnology) panel a, anti-DDR1 (C-20, Santa Cruz Biotechnology Inc.) panel b, and anti-DDR1 N-terminal H-126 (SCBT) panel c by western blotting. […] DDR1 is proteolytically cleaved in response to ligand stimulation. A 52 kD soluble protein was detected in the media with H-126, a N-terminal anti-DDR1 antibody (panel c).
Target sequence in this assay (Q08345 19-913): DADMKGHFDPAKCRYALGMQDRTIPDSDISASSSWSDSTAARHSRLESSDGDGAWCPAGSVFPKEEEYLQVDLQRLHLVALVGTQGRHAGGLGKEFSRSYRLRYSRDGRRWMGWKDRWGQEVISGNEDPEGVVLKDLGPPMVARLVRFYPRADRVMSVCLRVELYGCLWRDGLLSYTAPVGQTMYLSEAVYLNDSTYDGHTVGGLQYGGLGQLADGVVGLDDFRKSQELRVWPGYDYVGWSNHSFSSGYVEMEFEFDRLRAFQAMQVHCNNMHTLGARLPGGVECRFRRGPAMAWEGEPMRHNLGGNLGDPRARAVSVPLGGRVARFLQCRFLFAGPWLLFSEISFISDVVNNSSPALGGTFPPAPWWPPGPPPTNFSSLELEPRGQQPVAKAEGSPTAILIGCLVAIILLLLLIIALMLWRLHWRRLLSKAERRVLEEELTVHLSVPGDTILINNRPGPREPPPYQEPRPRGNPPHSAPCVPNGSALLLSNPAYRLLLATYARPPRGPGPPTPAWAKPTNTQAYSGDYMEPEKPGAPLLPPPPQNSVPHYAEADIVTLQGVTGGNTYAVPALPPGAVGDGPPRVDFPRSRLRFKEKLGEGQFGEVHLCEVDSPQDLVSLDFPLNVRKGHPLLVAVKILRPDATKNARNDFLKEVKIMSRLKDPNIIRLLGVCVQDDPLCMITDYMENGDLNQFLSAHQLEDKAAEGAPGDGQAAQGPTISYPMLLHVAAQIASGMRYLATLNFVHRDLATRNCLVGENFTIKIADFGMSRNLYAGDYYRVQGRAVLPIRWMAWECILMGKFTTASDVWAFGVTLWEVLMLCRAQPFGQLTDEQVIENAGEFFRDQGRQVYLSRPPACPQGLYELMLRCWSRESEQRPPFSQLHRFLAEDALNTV

DDR1 [5] = target: T1, DDR1; assay: DDR1 internalization, Cellomics ArrayScan; type: cell-based; design: DDR1 is phosphorylated as a 125 kD (full length) protein; conditions: human Glioma derived cells; soluble, 30 minutes
Experimental: Cells are rinsed once with HBSS and fixed with 3.7% neutral buffered formalin. The fixation solution is aspirated, and the plate washed with blocking buffer, and then incubated with permeabilization buffer for 10 minutes. The cells are then stained with fluorescence conjugated secondary antibody solution containing 10 ug/ml Hoechst 33342 (to stain nuclei) for 30 minutes at room temperature. Plates are washed twice, sealed, and stored in HBSS at 4 C. Images are acquired using the ArrayScan HCS system and internalized receptors quantitated using a proprietary algorithm. The algorithm measures the appearance and intensity of fluorescent receptor aggregates inside the cell. These measurements are represented as mean cytoplasmic intensity (amount of antibody-receptor complex inside the cell) and mean cytoplasmic texture (a measure of the endosome aggregates). Antibodies that trigger receptor internalization are further evaluated. Antibodies that bind to DDR1 on human glioma cells and become internalized are of particular interest. In some instances endocytosis serves as a surrogate marker for other therapeutic biologic effects, such as growth inhibition.
DDR1 internalization. Human Glioma derived were treated with soluble collagen I for 30 minutes and then stained for DDR1. The Cellomics ArrayScan fluorescent microscope instrument was used to identify and quantitate internalized DDR1 (FIG. 8).
Target sequence in this assay (Q08345 19-913): as above

DDR1 [6] = target: T1, DDR1; assay: Immunoprecipitation for DDR1 phosphorylation; type: cell-based; design: expressed in transfected cells; host or cells: G140 glioma cells stably transduced with a pLEN retroviral vector carrying DDR1a or DDR1b; conditions: 10 μg/ml soluble
Experimental: as §2

CNC(=O)[C@H](Cc1c[nH]c2ccccc12)NC(=O)[C@@H](CC(=O)NO)CC(C)C [GM6001]
DDR1a mediated invasion through matrigel (G140-DDR1a cells [1]): prevented
DDR1a mediated invasion through matrigel (G140-DDR1a cells [1]; listed as GM60001): inhibited
DDR1a mediated invasion through collagen type 1 (G140-DDR1a cells [2]): prevented
DDR1a mediated invasion through collagen type 1 (G140-DDR1a cells [2]; listed as GM60001): inhibited
DDR1a stimulated activation / enzymatic activity of MMP-2 (MMP-2; 25 μm, G140-DDR1a cells, collagen 1 stimulation): effectively inhibited; also recorded: prevented
migration of glioma cells (glioma cells): prevented

Collagen type 1: Rat tail collagen type 1, DDR1 ligand used to stimulate cells
conversion of intermediate (64 kDa) to active form of MMP-2 (62 kDa) (MMP-2; 10 μg/ml, G140-DDR1a overexpressing cells): increased conversion
MMP-2 activation (MMP-2; 10 μg/ml, G140 parental, G140-DDR1b and G140 mock cells): did not increase
time of peak autophosphorylation of endogenous DDR1 (DDR1 [3]): 60 min
MMP-1, MMP-2 and MMP-9 production (MMP-1, MMP-2 and MMP-9): induced
activation of pro-MMP-2 and Pro-MMP-1 (MMP-1, MMP-2 and MMP-9): Increased activation
tyrosine phosphorylation of DDR1 (DDR1 [4]; listed as Type 1 Collagen): phosphorylated; also recorded: resulted in tyrosine phosphorylation of DDR1
DDR1 internalization (mean cytoplasmic intensity, cytoplasmic texture) (DDR1 [5]): induces DDR1 to appear in the cytoplasm
time of maximal DDR1a phosphorylation (DDR1 [6]; G140-DDR1a cells): 60 min
time of peak phosphorylation of G140-DDR1b (DDR1 [6]; G140-DDR1b cells): 90 min

EGF: EGF 20 ng/ml, used to stimulate DDR1 Glioma cells
tyrosine phosphorylation of DDR1 (DDR1 [4]): phosphorylated; also recorded: resulted in tyrosine phosphorylation of DDR1

Fibronectin: human Fibronectin, used to stimulate DDR1 Glioma cells
tyrosine phosphorylation of DDR1 (DDR1 [4]): phosphorylated; also recorded: resulted in tyrosine phosphorylation of DDR1
